Measured values from patent US6958321B2, “Isolation, characterization, cloning and use of a mushroom lectin” (The Regents of the University of Michigan, priority 2001, dated 2005).

T1: alpha-Galactosidase-digested alpha2-macroglobulin glycoprotein (from volunteer 4) (human, UniProt P01023 24-1474, terminal alpha-galactose removed with alpha-galactosidase)
T1 construct: mature; also called alpha-Galactosidase-digested glycoprotein from volunteer 4; treated fractions containing principally alpha2-macroglobulin
T1 sequence (looked up): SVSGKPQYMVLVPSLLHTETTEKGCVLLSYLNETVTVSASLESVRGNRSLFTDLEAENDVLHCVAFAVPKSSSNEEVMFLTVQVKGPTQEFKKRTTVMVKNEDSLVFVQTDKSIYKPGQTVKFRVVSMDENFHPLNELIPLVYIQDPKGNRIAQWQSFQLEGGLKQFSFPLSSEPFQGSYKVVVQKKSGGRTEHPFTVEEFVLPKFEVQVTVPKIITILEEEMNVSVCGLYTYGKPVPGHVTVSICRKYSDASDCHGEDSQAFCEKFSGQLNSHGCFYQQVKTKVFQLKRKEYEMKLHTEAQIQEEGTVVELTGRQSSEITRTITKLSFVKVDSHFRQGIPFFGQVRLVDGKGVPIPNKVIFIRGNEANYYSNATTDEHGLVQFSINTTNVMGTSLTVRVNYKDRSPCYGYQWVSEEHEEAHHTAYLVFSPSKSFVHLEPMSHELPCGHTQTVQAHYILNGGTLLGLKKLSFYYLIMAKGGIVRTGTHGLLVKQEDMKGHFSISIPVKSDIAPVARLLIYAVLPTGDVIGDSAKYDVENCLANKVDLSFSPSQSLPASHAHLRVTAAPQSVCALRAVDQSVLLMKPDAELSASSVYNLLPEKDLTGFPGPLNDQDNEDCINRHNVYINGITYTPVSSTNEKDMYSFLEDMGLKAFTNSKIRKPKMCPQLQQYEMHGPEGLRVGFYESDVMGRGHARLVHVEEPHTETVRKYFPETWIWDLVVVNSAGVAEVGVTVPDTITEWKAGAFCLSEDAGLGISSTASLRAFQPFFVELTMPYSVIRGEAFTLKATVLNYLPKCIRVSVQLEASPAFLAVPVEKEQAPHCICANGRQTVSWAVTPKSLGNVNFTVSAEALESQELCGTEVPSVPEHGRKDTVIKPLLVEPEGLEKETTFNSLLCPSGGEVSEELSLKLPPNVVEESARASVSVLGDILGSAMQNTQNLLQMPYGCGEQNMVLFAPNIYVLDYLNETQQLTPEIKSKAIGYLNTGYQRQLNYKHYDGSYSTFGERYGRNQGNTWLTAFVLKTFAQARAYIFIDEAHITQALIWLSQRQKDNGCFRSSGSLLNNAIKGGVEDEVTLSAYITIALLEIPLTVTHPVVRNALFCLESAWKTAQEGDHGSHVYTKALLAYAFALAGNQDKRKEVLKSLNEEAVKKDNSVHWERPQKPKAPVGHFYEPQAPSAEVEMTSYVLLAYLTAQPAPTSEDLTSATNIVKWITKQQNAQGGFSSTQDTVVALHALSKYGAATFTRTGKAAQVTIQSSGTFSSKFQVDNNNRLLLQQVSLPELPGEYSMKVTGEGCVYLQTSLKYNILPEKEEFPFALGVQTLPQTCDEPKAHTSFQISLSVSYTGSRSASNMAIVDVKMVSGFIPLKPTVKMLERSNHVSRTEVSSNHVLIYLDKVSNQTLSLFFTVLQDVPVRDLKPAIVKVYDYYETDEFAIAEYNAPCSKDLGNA

T2: Asialofetuin (UniProt P12763 19-359, desialylated glycans with terminal Gal-beta-1,4-GlcNAc)
T2 sequence (looked up): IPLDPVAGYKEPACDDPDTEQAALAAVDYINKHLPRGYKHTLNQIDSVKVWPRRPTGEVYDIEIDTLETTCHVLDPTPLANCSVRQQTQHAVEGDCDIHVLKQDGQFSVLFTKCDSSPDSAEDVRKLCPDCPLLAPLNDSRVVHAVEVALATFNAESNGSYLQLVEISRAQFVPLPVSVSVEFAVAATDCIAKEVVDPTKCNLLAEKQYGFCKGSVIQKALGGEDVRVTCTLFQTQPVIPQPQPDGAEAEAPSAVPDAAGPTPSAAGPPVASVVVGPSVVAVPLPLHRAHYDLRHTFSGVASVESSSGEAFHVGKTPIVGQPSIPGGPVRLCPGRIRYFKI

B1: Lotus lectin (other, UniProt P19664 1-240, looked up)
chain: VSFNYTEFKDDGSLILQGDAKIWTDGRLAMPTDPLVNNPKTTRSAGRALYATPVPIWDSATGNVASFVTSFNFLFVIRELKYTPTDGLVFFLAPVGTEIPSGSTGGFLGIFDGSNGFNQFVAVEFDSYHNIWDPKSLRSSHVGIDVNSIMSLKAVNWNRVSGSLEKATIIYDSQTNILSVVMTSQNGQITTIYGTIDLKTVLPEKVSVGFSATTGNPEREKHDIYSWSFTSTLKEPEEQA
B2: Intact native Marasmius oreades agglutinin (MOA) prepared by the method of Example 2 (other)
chain: MSLRRGIYHIENAGVPSAIDLKDGSSSDGTPIVGWQFTPDTINWHQLWLAEPIPNVADTFTLCNLFSGTYMDLYNGSSEAGTAVNGWQGTAFTTNPHQLWTIKKSSDGTSYKIQNYGSKTFVDLVNGDSSDGAKIAGWTGTWDEGNPHQKWYFNRMSVSSAEAQAAIARNPHIHGTYRGYILDGEYLVLPNATFTQIWKDSGLPGSKWREQIYDCDDFAIAMKAAVGKWGADSWKANGFAIFCGVMLGVNKAGDAAHAYNFTLTKDHADIVFFEPQNGGYLNDIGYDSYMAFY
modifications: blocked N-terminus (possibly N-acetyl)
notes: also called native MOA; immobilized MOA
B3: Recombinant MOA: MOA expressed in E. coli from a pT7 vector and affinity purified (protein)
chain: B2 chain
B4: Ulex europaeus I lectin (other, UniProt P22972 1-243, looked up)
chain: SDDLSFKFKNFSQNGKDLSFQGDASVIETGVLQLNKVGNNLPDETGGIARYIAPIHIWNCNTGEVASFITSFSFFMETSANPKAATDGLTFFLAPPDSPLRRAGGYFGLFEDTKDNDSSYQTVAVEFDTIGSPVNFDDPGFPHIGIDVNRVKSINAERWNKRYGLNNVANVEIIYEASSKTLTASLTYPSDQTSISVTSIVDLKEILPEWVSVGFSGGTYIGRQATHEVLNWYFTSNLINTNS
notes: also called Ulex I

Legend:
[1] = system: immobilized MOA; assay: Binding to MOA-Sepharose 4B affinity column; parameters: species or system Marasmius oreades; details: washed with PBS, eluted with 20 mM diaminopropane
From the text: Further insight into the carbohydrate specificity of MOA was obtained by using immobilized MOA. Immobilization of MOA on a variety of supports is contemplated. In one embodiment, MOA is immobilized on a matrix that can be used in an affinity column (see below). In some embodiments, the matrix comprises Sepharose 4B beads. In some Embodiments, the MOA-conjugated Sepharose 4B beads are packed in a column for binding and affinity isolation and purification studies. Briefly, the MOA-Sepharose column is loaded with glycan, glycoconjugate or serum sample to be tested, then washed with an appropriate buffer (including but not limited to PBS). Bound components are eluted with a suitable elution buffer (including but not limited to 1,3-diaminopropane in NaCl), and the collected fractions are analyzed for the presence of protein or glycan (see Example 6 below). The fractions containing the bound components (eluted as described herein) can be pooled and concentrated.
MOA was immobilized on cyanogen bromide-activated Sepharose 4B as follows. 1.5 g of cyanogen bromide-activated Sepharose 4B was allowed to swell in 100 ml of 1 mM HCl solution for 30 min. The supernatant was removed and the swollen beads (6 ml) were filtered on a sintered funnel, washed several times with 100 ml of 1 mM HCl and finally with 20 ml of 0.1 M sodium bicarbonate buffer, pH 8.3, containing 0.5 M sodium chloride. The beads were quickly transferred to a plastic bottle containing 16.2 mg MOA in the same buffer (10 ml) containing 0.2 M lactose. The plastic bottle was shaken at room temperature for 6 hr and at 4° C. overnight. The beads were filtered on a sintered glass funnel, washed with the coupling buffer, and then shaken in 1 M ethanolamine (12 ml) at room temperature for 2.5 hr to cap all of the unreacted iminocarbonate groups. The beads were filtered, washed alternately with the coupling buffer then sodium acetate buffer (0.1 M, pH 4.0 containing 0.5 M NaCl) four times. A column (1×7 cm) packed with the beads was finally washed with PBS containing 0.04% sodium azide. The beads contained 2.3 mg MOA per ml Sepharose 4B, based on MOA remaining in solution.
In order to assess the binding of various glycans, glycoconjugates and serum samples to MOA-Sepharose, the following general procedure was used. The MOA-Sepharose column was loaded with glycan, glycoconjugate or serum sample (0.6-5 ml) and washed with PBS (15 ml). The bound components were eluted with 20 mM 1,3-diaminopropane in 0.15 M NaCl (15 ml). The fractions collected (1 ml) were neutralized with 1 M phosphoric acid (approximately 16 μl), and analyzed by either absorbance at 280 nm for protein, or by phenol-sulfuric acid assay, as described by Dubois et al. [Anal. Chem. 28: 350 (1956)] for the glycan. The column was finally washed thoroughly with PBS. The fractions containing the bound components were pooled and concentrated by Amicon ultrafiltration (Millipore Corp., Bedford, Mass.) using a membrane (YM10) of 10,000 molecular weight cut-off.

[2] = system: MOA; assay: Quantitative precipitation assay with MOA; format: binding, Marasmius oreades; details: 20 μg MOA, PBS pH 7.2, 48 hr at 4° C.
Protocol: In other embodiments, blood group specificity of MOA is determined by quantitative precipitation assays. Quantitative microprecipitation assays with soluble cyst blood group substances and inhibition of precipitation by sugar haptens were performed as described in Mo et al., [J. Biol. Chem. 275:10623 (2000)].
For quantitative precipitation assays, 20 μg of MOA and increasing amounts of glycoprotein or polysaccharide were used in a total volume of 120 to 200 μL, all in PBS/0.15 M NaCl. Quantitative carbohydrate hapten inhibition assays were conducted by adding increasing amounts of haptens to a mixture of MOA (20 μg) and type B blood group substance (5.0 μg). The reactions were incubated at 37° C. for an hour and then at 4° C. for 48 hours followed by centrifugation of the precipitates, washing, and determination of protein by the Lowry method [Lowry, O. H. et al., J. Biol. Chem. 193, 265-275 (1951)].
Varying amounts of blood group substances from 0 to 200 μg were incubated with 20 μg of MOA in a total volume of 150 μl of PBS (pH 7.2). After 48 hr at 4° C., the amounts of protein precipitated were quantified as described above. Solid squares indicate group A substance, solid circles indicate group B substance, and solid triangles indicate group O substance.
Various amounts of glycoconjugates, ranging from 0 to 100 μg were incubated with 20 μg of lectin in a total volume of 150 μl of PBS (pH 7.2). After 48 hr at 4° C., the amounts of protein precipitated were quantified, as described above. Solid circles indicate MOA interaction with laminin, solid crosses indicate MOA interaction with bovine thyroglobulin, solid squares indicate MOA interaction with C. alata galactomannan, solid triangles indicate MOA interaction with pigeon ovalbumin, open circles indicate MOA interaction with Ga1NAcα1,3Ga1β-polyacrylamide, open squares indicate GS I-B4 interaction with pigeon ovalbumin and closed inverted triangles indicate GS I-B4 interaction with Ga1NAcα1,3Ga1β-polyacrylamide.

[3] = molecular target: T1, alpha-Galactosidase-digested …; assay: agar gel diffusion, precipitin
[4] = molecular target: T2, Asialofetuin; assay: affinity chromatography on MOA-Sepharose 4B, PBS wash then elution with 20 mM 1,3-diaminopropane in 0.15 M NaCl, A280 of 1 ml fractions
[5] = Solubility and activity of salt-free lyophilisates; format: physicochemical
Protocol: Purification of recombinant MOA and native intact MOA-Recombinant MOA was purified from the soluble fraction by absorption on a column of melibiose-Sepharose and elution by lactose. Further purification was carried out on an affinity column of Synsorb B. Except for the diaminopropane elution, all affinity purifications were carried out in PBS, pH 7.2, containing 1.25 mM EDTA. After purification, lectin solutions were dialyzed against distilled water and lyophilized. […] Intact native MOA was prepared with a purification procedure (Example 2) that utilized a protease inhibitor cocktail (product P8215, Sigma, St. Louis, Mo.) which was added at the level of 0.1 ml/100 ml extract buffer (instead of phenylmethylsulfonyl fluoride), all buffers lacked Ca^++ and contained 1.25 mM EDTA, and the initial extraction and ammonium sulfate fractionations were carried out under an atmosphere of argon.

Molecule	binding to MOA-Sepharose column [1]	precipitation with MOA [2]	further results
Galactomannan	failed to bind	did not precipitate	–
bovine thyroglobulin: bovine thyroglobulin, with Galα1,3Galβ1,4GlcNAc end groups	bound tightly	reacted strongly	–
laminin: Laminin purified from the EHS sarcoma, with Galα1,3Galβ1,4GlcNAc end groups	bound tightly	reacted strongly	–
B1	–	–	binding result [3]: no binding
B2	–	–	binding result [4]: no binding
B3	–	–	solubility of salt-free lyophilisates ([5]; distilled water or buffer): readily soluble; agglutinating activity after lyophilisation ([5]; redissolved lyophilisates): retention of full agglutinating activity
B4	–	–	binding result [3]: binds
